From patent US20180282605A1, “METHOD OF MONITORING A PARAMETER OF A HYDROCARBON WELL, PIPELINE OR FORMATION” (JOHNSON MATTHEY PUBLIC LIMITHED COMPANY, priority 2015, published 2018)

Test: log P (octanol/water) of tracer anions
Assay type: physicochemical
Settings: log of ratio of equilibrium concentration in oil (octanol) to that in water, representative example values
Excerpt: The invention concerns the use of halogenated thiophene carboxylic acids or halogenated thiophene sulfonic acids, or salts of either, in tracing applications in hydrocarbon wells. Such compounds are not naturally found in hydrocarbon wells and formations and have not been previously used as tracers in such wells and formations. Tracers comprising such compounds may therefore be used as tracers in such wells and formations without the results of the tracing being affected by contamination. Moreover, the applicant has determined that non-halogenated thiophene compounds exist naturally in hydrocarbon formations and the compounds of the invention are therefore expected to be sufficiently stable, for example to have sufficient thermal stability, to survive the conditions in a hydrocarbon well. Since, unlike the naturally occurring thiophene compounds, the compounds of formula 1 are halogenated they are advantageously also detectable, for example using GC-MS, in very low concentrations, for example concentrations of 1 ppb or less, preferably concentrations of 100 ppt or less, more preferably concentrations of 10 ppt or less and yet more preferably concentrations of 1 ppt or less. The compounds of the invention may also show a high selectivity towards water instead of oil. Thus the tracer may be a water tracer. […] The log P value is a well-known value for characterising the preference of a compound for water or oil. The value is the log of the ratio of the equilibrium concentration of the compound in oil (octanol) to the equilibrium concentration of the compound in water. Thus the concentration of the compound in water is preferably at least 10 times, and more preferably at least 100 times, that of the compound in oil. It may be that the salt of the compound (or the anion of the salt) is more soluble in water than the acid. For that reason, it is preferable to use the salt as the tracer.

| logP | SMILES |
| --- | --- |
| -1.16 | Cc1cc(C(=O)O)sc1F |
| -1.81 | O=C(O)c1csc(F)c1 |
| -1.35 | O=C(O)c1csc(Cl)c1 |
